Experimental data published in PubChem BioAssay (NCI).
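Step 1: Grow cells in 96-well plates. Step 2: Expose to compound for 48 hours at 5 concentrations. Step 3: Interpolate endpoints linearly; if unreached, use highest concentration. GI50: concentration for 50% inhibition of growth. TGI denotes the concentration required for complete inhibition of growth.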

Legend:
Test in all cases: growth of human tumour cells (NCI), 48 h
SF-295 CNS = tested on: SF-295 CNS
MALME-3M melanoma = tested on: MALME-3M melanoma
NCI-H522 lung = tested on: NCI-H522 lung
UO-31 renal = tested on: UO-31 renal
OVCAR-3 ovarian = tested on: OVCAR-3 ovarian
A498 renal = tested on: A498 renal
SF-268 CNS = tested on: SF-268 CNS
OVCAR-5 ovarian = tested on: OVCAR-5 ovarian
LOX IMVI melanoma = tested on: LOX IMVI melanoma
RPMI-8226 leukemia = tested on: RPMI-8226 leukemia
DU-145 prostate = tested on: DU-145 prostate
KM12 colon = tested on: KM12 colon
SN12C renal = tested on: SN12C renal
MDA-MB-435 = tested on: MDA-MB-435
MDA-MB-231 breast = tested on: MDA-MB-231 breast
UACC-62 melanoma = tested on: UACC-62 melanoma
EKVX NSCLC = tested on: EKVX NSCLC
U251 CNS = tested on: U251 CNS
RXF 393 renal = tested on: RXF 393 renal
A549 NSCLC = tested on: A549 NSCLC
T-47D breast = tested on: T-47D breast
NCI/ADR-RES ovarian = tested on: NCI/ADR-RES ovarian
HCT-15 colon = tested on: HCT-15 colon
SNB-75 CNS = tested on: SNB-75 CNS
HCC-2998 colon = tested on: HCC-2998 colon
OVCAR-8 ovarian = tested on: OVCAR-8 ovarian
M14 melanoma = tested on: M14 melanoma
MCF7 breast = tested on: MCF7 breast
786-0 renal = tested on: 786-0 renal
OVCAR-4 ovarian = tested on: OVCAR-4 ovarian
IGROV1 ovarian = tested on: IGROV1 ovarian
HCT-116 colon = tested on: HCT-116 colon
HS 578T breast = tested on: HS 578T breast
CCRF-CEM leukemia = tested on: CCRF-CEM leukemia
HOP-92 NSCLC = tested on: HOP-92 NSCLC
CAKI-1 renal = tested on: CAKI-1 renal
SW-620 colon = tested on: SW-620 colon
SK-MEL-28 melanoma = tested on: SK-MEL-28 melanoma
TK-10 renal = tested on: TK-10 renal
SK-OV-3 ovarian = tested on: SK-OV-3 ovarian
HOP-62 NSCLC = tested on: HOP-62 NSCLC
HT29 colon = tested on: HT29 colon
UACC-257 melanoma = tested on: UACC-257 melanoma
BT-549 breast = tested on: BT-549 breast
PC-3 prostate = tested on: PC-3 prostate
SK-MEL-5 melanoma = tested on: SK-MEL-5 melanoma
COLO 205 colon = tested on: COLO 205 colon
NCI-H226 lung = tested on: NCI-H226 lung
SF-539 CNS = tested on: SF-539 CNS
SK-MEL-2 melanoma = tested on: SK-MEL-2 melanoma
SNB-19 CNS = tested on: SNB-19 CNS
NCI-H460 lung = tested on: NCI-H460 lung
ACHN renal = tested on: ACHN renal

Question: With Clc1ccc2oc3c(NCCCn4ccnc4)c4ccccc4nc3c2c1 as the compound, how does the GI50 (SF-295 CNS) read?
Answer: 17.9 µM

Question: What about the TGI (SF-295 CNS) of the same compound?
Answer: 66.6 µM

Question: And the GI50 (MALME-3M melanoma)?
Answer: 39.2 µM

Question: What about the TGI (MALME-3M melanoma) of the same compound?
Answer: > 100 µM

Question: And the GI50 (NCI-H522 lung)?
Answer: 15 µM

Question: What about the TGI (NCI-H522 lung) of the same compound?
Answer: > 100 µM

Question: And the GI50 (UO-31 renal)?
Answer: 13.2 µM

Question: What about the TGI (UO-31 renal) of the same compound?
Answer: 67.4 µM

Question: And the GI50 (OVCAR-3 ovarian)?
Answer: 23.8 µM

Question: And the TGI (OVCAR-3 ovarian)?
Answer: > 100 µM

Question: And the GI50 (A498 renal)?
Answer: > 100 µM

Question: And the TGI (A498 renal)?
Answer: > 100 µM

Question: What about the GI50 (SF-268 CNS) of the same compound?
Answer: 15.2 µM

Question: And the TGI (SF-268 CNS)?
Answer: > 100 µM

Question: What about the GI50 (OVCAR-5 ovarian) of the same compound?
Answer: 24.9 µM

Question: What about the TGI (OVCAR-5 ovarian) of the same compound?
Answer: > 100 µM

Question: What about the GI50 (LOX IMVI melanoma) of the same compound?
Answer: 10.4 µM

Question: And the TGI (LOX IMVI melanoma)?
Answer: 39.1 µM

Question: What about the GI50 (RPMI-8226 leukemia) of the same compound?
Answer: 16.5 µM

Question: And the TGI (RPMI-8226 leukemia)?
Answer: 55.9 µM

Question: And the GI50 (DU-145 prostate)?
Answer: 23.3 µM

Question: And the TGI (DU-145 prostate)?
Answer: > 100 µM

Question: What about the GI50 (KM12 colon) of the same compound?
Answer: 15.4 µM

Question: What about the TGI (KM12 colon) of the same compound?
Answer: > 100 µM

Question: What about the GI50 (SN12C renal) of the same compound?
Answer: 9.75 µM

Question: What about the TGI (SN12C renal) of the same compound?
Answer: > 100 µM

Question: And the GI50 (MDA-MB-435)?
Answer: 25.9 µM

Question: And the TGI (MDA-MB-435)?
Answer: > 100 µM

Question: And the GI50 (MDA-MB-231 breast)?
Answer: 17.5 µM

Question: And the TGI (MDA-MB-231 breast)?
Answer: > 100 µM

Question: And the GI50 (UACC-62 melanoma)?
Answer: 19.2 µM

Question: And the TGI (UACC-62 melanoma)?
Answer: 45.5 µM

Question: What about the GI50 (EKVX NSCLC) of the same compound?
Answer: 51.7 µM

Question: And the TGI (EKVX NSCLC)?
Answer: > 100 µM

Question: What about the GI50 (U251 CNS) of the same compound?
Answer: 26.5 µM

Question: And the TGI (U251 CNS)?
Answer: > 100 µM

Question: What about the GI50 (RXF 393 renal) of the same compound?
Answer: 4.65 µM

Question: What about the TGI (RXF 393 renal) of the same compound?
Answer: 23 µM

Question: And the GI50 (A549 NSCLC)?
Answer: 34.6 µM

Question: What about the TGI (A549 NSCLC) of the same compound?
Answer: > 100 µM

Question: What about the GI50 (T-47D breast) of the same compound?
Answer: 36 µM

Question: What about the TGI (T-47D breast) of the same compound?
Answer: > 100 µM

Question: What about the GI50 (NCI/ADR-RES ovarian) of the same compound?
Answer: 7.77 µM

Question: And the TGI (NCI/ADR-RES ovarian)?
Answer: > 100 µM

Question: And the GI50 (HCT-15 colon)?
Answer: 11.7 µM

Question: And the TGI (HCT-15 colon)?
Answer: > 100 µM

Question: What about the GI50 (SNB-75 CNS) of the same compound?
Answer: 20.4 µM

Question: What about the TGI (SNB-75 CNS) of the same compound?
Answer: > 100 µM

Question: What about the GI50 (HCC-2998 colon) of the same compound?
Answer: 12.7 µM

Question: And the TGI (HCC-2998 colon)?
Answer: > 100 µM

Question: What about the GI50 (OVCAR-8 ovarian) of the same compound?
Answer: 12.7 µM

Question: What about the TGI (OVCAR-8 ovarian) of the same compound?
Answer: > 100 µM

Question: And the GI50 (M14 melanoma)?
Answer: 28 µM

Question: And the TGI (M14 melanoma)?
Answer: > 100 µM

Question: What about the GI50 (MCF7 breast) of the same compound?
Answer: 16.1 µM

Question: What about the TGI (MCF7 breast) of the same compound?
Answer: > 100 µM

Question: What about the GI50 (786-0 renal) of the same compound?
Answer: 16.3 µM

Question: And the TGI (786-0 renal)?
Answer: > 100 µM

Question: What about the GI50 (OVCAR-4 ovarian) of the same compound?
Answer: 11.8 µM

Question: What about the TGI (OVCAR-4 ovarian) of the same compound?
Answer: 41.2 µM

Question: And the GI50 (IGROV1 ovarian)?
Answer: 21.9 µM

Question: What about the TGI (IGROV1 ovarian) of the same compound?
Answer: > 100 µM

Question: And the GI50 (HCT-116 colon)?
Answer: 4.48 µM

Question: And the TGI (HCT-116 colon)?
Answer: 31.3 µM

Question: And the GI50 (HS 578T breast)?
Answer: 22.1 µM

Question: And the TGI (HS 578T breast)?
Answer: > 100 µM

Question: And the GI50 (CCRF-CEM leukemia)?
Answer: 8.66 µM

Question: And the TGI (CCRF-CEM leukemia)?
Answer: > 100 µM

Question: What about the GI50 (HOP-92 NSCLC) of the same compound?
Answer: 1.78 µM

Question: And the TGI (HOP-92 NSCLC)?
Answer: 22.7 µM

Question: What about the GI50 (CAKI-1 renal) of the same compound?
Answer: 11.4 µM

Question: What about the TGI (CAKI-1 renal) of the same compound?
Answer: > 100 µM

Question: And the GI50 (SW-620 colon)?
Answer: 5.13 µM

Question: What about the TGI (SW-620 colon) of the same compound?
Answer: > 100 µM

Question: And the GI50 (SK-MEL-28 melanoma)?
Answer: 34.4 µM

Question: What about the TGI (SK-MEL-28 melanoma) of the same compound?
Answer: > 100 µM

Question: What about the GI50 (TK-10 renal) of the same compound?
Answer: 79 µM

Question: And the TGI (TK-10 renal)?
Answer: > 100 µM

Question: And the GI50 (SK-OV-3 ovarian)?
Answer: > 100 µM

Question: And the TGI (SK-OV-3 ovarian)?
Answer: > 100 µM

Question: And the GI50 (HOP-62 NSCLC)?
Answer: 16.6 µM

Question: What about the TGI (HOP-62 NSCLC) of the same compound?
Answer: > 100 µM

Question: What about the GI50 (HT29 colon) of the same compound?
Answer: 6.14 µM

Question: What about the TGI (HT29 colon) of the same compound?
Answer: 23.6 µM

Question: What about the GI50 (UACC-257 melanoma) of the same compound?
Answer: 39.9 µM

Question: What about the TGI (UACC-257 melanoma) of the same compound?
Answer: > 100 µM

Question: What about the GI50 (BT-549 breast) of the same compound?
Answer: 16.9 µM

Question: And the TGI (BT-549 breast)?
Answer: 51.4 µM

Question: And the GI50 (PC-3 prostate)?
Answer: 24.9 µM

Question: What about the TGI (PC-3 prostate) of the same compound?
Answer: > 100 µM

Question: What about the GI50 (SK-MEL-5 melanoma) of the same compound?
Answer: 80.6 µM

Question: And the TGI (SK-MEL-5 melanoma)?
Answer: > 100 µM

Question: What about the GI50 (COLO 205 colon) of the same compound?
Answer: 10.9 µM

Question: And the TGI (COLO 205 colon)?
Answer: 37.7 µM

Question: And the GI50 (NCI-H226 lung)?
Answer: 26.8 µM

Question: What about the TGI (NCI-H226 lung) of the same compound?
Answer: > 100 µM

Question: And the GI50 (SF-539 CNS)?
Answer: 12.8 µM

Question: What about the TGI (SF-539 CNS) of the same compound?
Answer: 28.2 µM

Question: What about the GI50 (SK-MEL-2 melanoma) of the same compound?
Answer: > 100 µM

Question: And the TGI (SK-MEL-2 melanoma)?
Answer: > 100 µM

Question: And the GI50 (SNB-19 CNS)?
Answer: 27.8 µM

Question: What about the TGI (SNB-19 CNS) of the same compound?
Answer: > 100 µM

Question: What about the GI50 (NCI-H460 lung) of the same compound?
Answer: 5.26 µM

Question: And the TGI (NCI-H460 lung)?
Answer: 21.4 µM

Question: And the GI50 (ACHN renal)?
Answer: 4.84 µM

Question: And the TGI (ACHN renal)?
Answer: > 100 µM
